What follows are molecules tested on Chenopodium album (common lambsquarters) (assay: Test Example-4: herbicidal effect by a foliage treatment after weeds are generated under upland field conditions). Conditions: 500 g a.i/ha, foliage treatment after emergence, about 14 days after treatment, score 0-5.
Type: in vivo
Outline: (§1)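 Weed seeds were sown in upland soil, covered with about 0.5 cm soil and grown 14 days with watering. Diluted wettable powder or emulsifiable concentrate was then sprayed uniformly on foliage at a set dosage in 4000 L water/ha. Weed control and corn injury were scored 0–5 about 14 days later.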

Row | SMILES | Herbicidal effect Chenopodium album
1 | C#CC(C)Oc1cc(-c2c(Cl)n3n(c2=O)CCCC3)c(F)cc1Cl (stereo not shown) [Example 1-243] | 5 (Herbicidal effect/phytotoxicity was 90% or greater)
2 | CC(C)Oc1cc(-c2c(Cl)n3n(c2=O)CCCC3)c(F)cc1Cl [Example 1-151] | 5 (Herbicidal effect/phytotoxicity was 90% or greater)
3 | O=c1c(-c2cc(OC3CCCC3)c(Cl)cc2F)c(Cl)n2n1CCCC2 [Example 1-181] | 5 (Herbicidal effect/phytotoxicity was 90% or greater)
4 | C=C(Cl)COc1cc(-c2c(Cl)n3n(c2=O)CCCC3)c(F)cc1Cl [Example 1-369] | 5 (Herbicidal effect/phytotoxicity was 90% or greater)

These molecules were tested on Amaranthus viridis (green amaranthus) in the same assay as above. Conditions: 500 g a.i/ha, foliage treatment after emergence, about 14 days after treatment, score 0-5.
Type: in vivo
Outline: as §1

Row | SMILES | Herbicidal effect Amaranthus viridis
5 | C#CC(C)Oc1cc(-c2c(Cl)n3n(c2=O)CCCC3)c(F)cc1Cl (stereo not shown) [Example 1-243] | 5 (Herbicidal effect/phytotoxicity was 90% or greater)
6 | CC(C)Oc1cc(-c2c(Cl)n3n(c2=O)CCCC3)c(F)cc1Cl [Example 1-151] | 5 (Herbicidal effect/phytotoxicity was 90% or greater)
7 | O=c1c(-c2cc(OC3CCCC3)c(Cl)cc2F)c(Cl)n2n1CCCC2 [Example 1-181] | 5 (Herbicidal effect/phytotoxicity was 90% or greater)
8 | C=C(Cl)COc1cc(-c2c(Cl)n3n(c2=O)CCCC3)c(F)cc1Cl [Example 1-369] | 5 (Herbicidal effect/phytotoxicity was 90% or greater)

The molecules below were run on Abutilon theophrasti (velvetleaf) in the same assay as above. Conditions: 500 g a.i/ha, foliage treatment after emergence, about 14 days after treatment, score 0-5.
Type: in vivo
Outline: as §1

Row | SMILES | Herbicidal effect Abutilon theophrast
9 | C#CC(C)Oc1cc(-c2c(Cl)n3n(c2=O)CCCC3)c(F)cc1Cl (stereo not shown) [Example 1-243] | 5 (Herbicidal effect/phytotoxicity was 90% or greater)
10 | CC(C)Oc1cc(-c2c(Cl)n3n(c2=O)CCCC3)c(F)cc1Cl [Example 1-151] | 5 (Herbicidal effect/phytotoxicity was 90% or greater)
11 | O=c1c(-c2cc(OC3CCCC3)c(Cl)cc2F)c(Cl)n2n1CCCC2 [Example 1-181] | 5 (Herbicidal effect/phytotoxicity was 90% or greater)
12 | C=C(Cl)COc1cc(-c2c(Cl)n3n(c2=O)CCCC3)c(F)cc1Cl [Example 1-369] | 5 (Herbicidal effect/phytotoxicity was 90% or greater)

What follows are molecules tested on corn (assay: Test Example-2: phytotoxicity by a soil treatment before weeds are generated under upland field conditions). Conditions: application amount 500 g a.i/ha, soil spray treatment before weeds are generated, about 21 days after the treatment, score 0 to 5.
Type: in vivo
From the text: (§2) Using the formulation prepared according to the methods described above, the herbicidal effect of the bicyclic pyrazolinone derivative of the invention according to the methods shown in Test Examples below was examined. The herbicidal effect with respect to the test weeds or the phytotoxicity with respect to the test crops was examined according to the following criteria, and evaluated in six stage scores of 0 to 5. A vat having an area of 81 cm^2 and a depth of 3.5 cm was filled with upland soil, then, seeds of Amaranthus viridis (green amaranthus), Chenopodium album (common lambsquarters), and corn were seeded thereto, and the seeds were covered with soil of about 0.5 cm. Next day, a wettable powder or an emulsifiable concentrate of the compound of the present invention prepared according to Formulation Example was diluted, and a spray treatment was uniformly performed on the covered oil so as to be a predetermined dosage. The herbicidal effect with respect to the test weeds and the phytotoxicity with respect to corn about 21 days after the treatment were evaluated according to the evaluation criteria in six stages of 0 to 5 described above.

Row | SMILES | Phytotoxicity Corn
13 | C#CC(C)Oc1cc(-c2c(Cl)n3n(c2=O)CCCC3)c(F)cc1Cl (stereo not shown) [Example 1-243] | 0 (Herbicidal effect/phytotoxicity was 0% to 10%)
14 | CC(C)Oc1cc(-c2c(Cl)n3n(c2=O)CCCC3)c(F)cc1Cl [Example 1-151] | 0 (Herbicidal effect/phytotoxicity was 0% to 10%)
15 | O=c1c(-c2cc(OC3CCCC3)c(Cl)cc2F)c(Cl)n2n1CCCC2 [Example 1-181] | 0 (Herbicidal effect/phytotoxicity was 0% to 10%)
16 | C=C(Cl)COc1cc(-c2c(Cl)n3n(c2=O)CCCC3)c(F)cc1Cl [Example 1-369] | 0 (Herbicidal effect/phytotoxicity was 0% to 10%)

What follows are molecules tested on Chenopodium album (common lambsquarters) (assay: Test Example-2: herbicidal effect by a soil treatment before weeds are generated under upland field conditions). Conditions: application amount 500 g a.i/ha, soil spray treatment before weeds are generated, about 21 days after the treatment, score 0 to 5.
Type: in vivo
From the text: as §2

Row | SMILES | Herbicidal effect Chenopodium album
17 | C#CC(C)Oc1cc(-c2c(Cl)n3n(c2=O)CCCC3)c(F)cc1Cl (stereo not shown) [Example 1-243] | 5 (Herbicidal effect/phytotoxicity was 90% or greater)
18 | CC(C)Oc1cc(-c2c(Cl)n3n(c2=O)CCCC3)c(F)cc1Cl [Example 1-151] | 5 (Herbicidal effect/phytotoxicity was 90% or greater)
19 | O=c1c(-c2cc(OC3CCCC3)c(Cl)cc2F)c(Cl)n2n1CCCC2 [Example 1-181] | 5 (Herbicidal effect/phytotoxicity was 90% or greater)
20 | C=C(Cl)COc1cc(-c2c(Cl)n3n(c2=O)CCCC3)c(F)cc1Cl [Example 1-369] | 5 (Herbicidal effect/phytotoxicity was 90% or greater)

The molecules below were run on Amaranthus viridis (green amaranthus) in the same assay as above. Conditions: application amount 500 g a.i/ha, soil spray treatment before weeds are generated, about 21 days after the treatment, score 0 to 5.
Type: in vivo
From the text: as §2

Row | SMILES | Herbicidal effect Amaranthus viridis
21 | C#CC(C)Oc1cc(-c2c(Cl)n3n(c2=O)CCCC3)c(F)cc1Cl (stereo not shown) [Example 1-243] | 5 (Herbicidal effect/phytotoxicity was 90% or greater)
22 | CC(C)Oc1cc(-c2c(Cl)n3n(c2=O)CCCC3)c(F)cc1Cl [Example 1-151] | 5 (Herbicidal effect/phytotoxicity was 90% or greater)
23 | O=c1c(-c2cc(OC3CCCC3)c(Cl)cc2F)c(Cl)n2n1CCCC2 [Example 1-181] | 5 (Herbicidal effect/phytotoxicity was 90% or greater)
24 | C=C(Cl)COc1cc(-c2c(Cl)n3n(c2=O)CCCC3)c(F)cc1Cl [Example 1-369] | 5 (Herbicidal effect/phytotoxicity was 90% or greater)

Each molecule was assayed on corn (assay: Test Example-4: phytotoxicity by a foliage treatment after weeds are generated under upland field conditions). Conditions: 500 g a.i/ha, foliage treatment after emergence, about 14 days after treatment, score 0-5.
Type: in vivo
Outline: as §1

Row | SMILES | Phytotoxicity Corn
25 | C#CC(C)Oc1cc(-c2c(Cl)n3n(c2=O)CCCC3)c(F)cc1Cl (stereo not shown) [Example 1-243] | 1 (Herbicidal effect/phytotoxicity was 10% to 30%)
26 | CC(C)Oc1cc(-c2c(Cl)n3n(c2=O)CCCC3)c(F)cc1Cl [Example 1-151] | 1 (Herbicidal effect/phytotoxicity was 10% to 30%)
27 | O=c1c(-c2cc(OC3CCCC3)c(Cl)cc2F)c(Cl)n2n1CCCC2 [Example 1-181] | 1 (Herbicidal effect/phytotoxicity was 10% to 30%)
28 | C=C(Cl)COc1cc(-c2c(Cl)n3n(c2=O)CCCC3)c(F)cc1Cl [Example 1-369] | 1 (Herbicidal effect/phytotoxicity was 10% to 30%)

What follows are molecules tested on Scirpus juncoides (bulrush) (assay: Test Example-1: herbicidal effect by a treatment before weeds are generated under submerged conditions). Conditions: 500 g a.i/ha, pre-emergence treatment, about 15 days after treatment, score 0-5.
Type: in vivo
Outline: (§3)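 Paddy soil in cups was puddled, seeded with the weeds and kept flooded; compound as wettable powder or emulsifiable concentrate was diluted and applied into the water on the seeding day at a set dosage. Effect was scored about 15 days later on a 0–5 scale.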

Row | SMILES | Herbicidal effect Scirpus juncoides
29 | C#CC(C)Oc1cc(-c2c(Cl)n3n(c2=O)CCCC3)c(F)cc1Cl (stereo not shown) [Example 1-243] | 5 (Herbicidal effect/phytotoxicity was 90% or greater)
30 | CC(C)Oc1cc(-c2c(Cl)n3n(c2=O)CCCC3)c(F)cc1Cl [Example 1-151] | 5 (Herbicidal effect/phytotoxicity was 90% or greater)
31 | O=c1c(-c2cc(OC3CCCC3)c(Cl)cc2F)c(Cl)n2n1CCCC2 [Example 1-181] | 5 (Herbicidal effect/phytotoxicity was 90% or greater)
32 | C=C(Cl)COc1cc(-c2c(Cl)n3n(c2=O)CCCC3)c(F)cc1Cl [Example 1-369] | 5 (Herbicidal effect/phytotoxicity was 90% or greater)

What follows are molecules tested on Cyperus difformis (smallflower umbrella plant) in the same assay as above. Conditions: 500 g a.i/ha, pre-emergence treatment, about 15 days after treatment, score 0-5.
Type: in vivo
Outline: as §3

Row | SMILES | Herbicidal effect Cyperus difformis
33 | C#CC(C)Oc1cc(-c2c(Cl)n3n(c2=O)CCCC3)c(F)cc1Cl (stereo not shown) [Example 1-243] | 5 (Herbicidal effect/phytotoxicity was 90% or greater)
34 | CC(C)Oc1cc(-c2c(Cl)n3n(c2=O)CCCC3)c(F)cc1Cl [Example 1-151] | 5 (Herbicidal effect/phytotoxicity was 90% or greater)
35 | O=c1c(-c2cc(OC3CCCC3)c(Cl)cc2F)c(Cl)n2n1CCCC2 [Example 1-181] | 5 (Herbicidal effect/phytotoxicity was 90% or greater)
36 | C=C(Cl)COc1cc(-c2c(Cl)n3n(c2=O)CCCC3)c(F)cc1Cl [Example 1-369] | 5 (Herbicidal effect/phytotoxicity was 90% or greater)

These molecules were tested on Echinochloa oryzicola (barnyard grass) in the same assay as above. Conditions: 500 g a.i/ha, pre-emergence treatment, about 15 days after treatment, score 0-5.
Type: in vivo
Outline: as §3

Row | SMILES | Herbicidal effect Echinochloa oryzicola
37 | C#CC(C)Oc1cc(-c2c(Cl)n3n(c2=O)CCCC3)c(F)cc1Cl (stereo not shown) [Example 1-243] | 5 (Herbicidal effect/phytotoxicity was 90% or greater)
38 | CC(C)Oc1cc(-c2c(Cl)n3n(c2=O)CCCC3)c(F)cc1Cl [Example 1-151] | 5 (Herbicidal effect/phytotoxicity was 90% or greater)
39 | O=c1c(-c2cc(OC3CCCC3)c(Cl)cc2F)c(Cl)n2n1CCCC2 [Example 1-181] | 5 (Herbicidal effect/phytotoxicity was 90% or greater)
40 | C=C(Cl)COc1cc(-c2c(Cl)n3n(c2=O)CCCC3)c(F)cc1Cl [Example 1-369] | 5 (Herbicidal effect/phytotoxicity was 90% or greater)

What follows are molecules tested on other annual broad leaf weeds (Lindernia procumbens, Rotala indica, Elatine triandra) in the same assay as above. Conditions: 500 g a.i/ha, pre-emergence treatment, about 15 days after treatment, score 0-5.
Type: in vivo
Outline: as §3

Row | SMILES | Herbicidal effect Broadleaf weed
41 | C#CC(C)Oc1cc(-c2c(Cl)n3n(c2=O)CCCC3)c(F)cc1Cl (stereo not shown) [Example 1-243] | 5 (Herbicidal effect/phytotoxicity was 90% or greater)
42 | CC(C)Oc1cc(-c2c(Cl)n3n(c2=O)CCCC3)c(F)cc1Cl [Example 1-151] | 5 (Herbicidal effect/phytotoxicity was 90% or greater)
43 | O=c1c(-c2cc(OC3CCCC3)c(Cl)cc2F)c(Cl)n2n1CCCC2 [Example 1-181] | 5 (Herbicidal effect/phytotoxicity was 90% or greater)
44 | C=C(Cl)COc1cc(-c2c(Cl)n3n(c2=O)CCCC3)c(F)cc1Cl [Example 1-369] | 5 (Herbicidal effect/phytotoxicity was 90% or greater)

The molecules below were run on Eleocharis acicularis (needle spikerush) in the same assay as above. Conditions: 500 g a.i/ha, pre-emergence treatment, about 15 days after treatment, score 0-5.
Type: in vivo
Outline: as §3

Row | SMILES | Herbicidal effect Eleocharis acicularis
45 | C#CC(C)Oc1cc(-c2c(Cl)n3n(c2=O)CCCC3)c(F)cc1Cl (stereo not shown) [Example 1-243] | 5 (Herbicidal effect/phytotoxicity was 90% or greater)
46 | CC(C)Oc1cc(-c2c(Cl)n3n(c2=O)CCCC3)c(F)cc1Cl [Example 1-151] | 5 (Herbicidal effect/phytotoxicity was 90% or greater)
47 | O=c1c(-c2cc(OC3CCCC3)c(Cl)cc2F)c(Cl)n2n1CCCC2 [Example 1-181] | 5 (Herbicidal effect/phytotoxicity was 90% or greater)
48 | C=C(Cl)COc1cc(-c2c(Cl)n3n(c2=O)CCCC3)c(F)cc1Cl [Example 1-369] | 5 (Herbicidal effect/phytotoxicity was 90% or greater)

What follows are molecules tested on Monochoria vaginalis (monochoria) in the same assay as above. Conditions: 500 g a.i/ha, pre-emergence treatment, about 15 days after treatment, score 0-5.
Type: in vivo
Outline: as §3

Row | SMILES | Herbicidal effect Monochoria vaginalis
49 | C#CC(C)Oc1cc(-c2c(Cl)n3n(c2=O)CCCC3)c(F)cc1Cl (stereo not shown) [Example 1-243] | 5 (Herbicidal effect/phytotoxicity was 90% or greater)
50 | CC(C)Oc1cc(-c2c(Cl)n3n(c2=O)CCCC3)c(F)cc1Cl [Example 1-151] | 5 (Herbicidal effect/phytotoxicity was 90% or greater)
51 | O=c1c(-c2cc(OC3CCCC3)c(Cl)cc2F)c(Cl)n2n1CCCC2 [Example 1-181] | 5 (Herbicidal effect/phytotoxicity was 90% or greater)
52 | C=C(Cl)COc1cc(-c2c(Cl)n3n(c2=O)CCCC3)c(F)cc1Cl [Example 1-369] | 5 (Herbicidal effect/phytotoxicity was 90% or greater)

— patent publication US9580444B2, “Polycyclic pyrazolinone derivative and herbicide comprising same as effective component thereof” (priority 2013, dated 2017)
